Experimental data as given in patent publication US10620222B2, “Electrified compositions for determining the risk of developing adolescent idiopathic scoliosis through the use of GI protein receptor” (CHU Sainte-Justine, priority 2008, dated 2020).
Where “and” joins values, the source holds several entries; their conditions need not be identical. Identical values can stand only once.

Tested on: receptors coupled to Gi proteins expressed on osteoblasts
Assay: Cellular Dielectric Spectroscopy (CDS, CELLKEY) response to Gi-coupled receptor ligands in osteoblasts from control and AIS subjects
Type: cell-based, human
Conditions: for dZiec value: n1, n2 of Exper. 1-3
Excerpt: Bone specimens were obtained intraoperatively from vertebras (varying from T3 to L4 according to the surgical procedure performed), while with trauma cases used as non-scoliotic controls bone specimens were obtained from other anatomical sites (tibia or femur, and in one case from an iliac crest biopsy). Osteoblasts and myoblasts isolated as previously described (Moreau A, Wang D S, Forget S et al. Melatonin Signaling Dysfunction in Adolescent Idiopathic Scoliosis. Spine 2004; 29:1772-81; Azeddine et al., 2007 Molecular determinants of melatonin signaling dysfunction in adolescent idiopathic scoliosis. Clin Orthop Relat Res. 2007, 462:45-52), were cultured at 37° C./5% CO2 in MEM supplemented with 10% fetal bovine serum (FBS) and 100 μg/mL streptomycin. Prior to the experiment, cells were seeded into the CELLKEY™ label-free cellular analysis system standard 96-well plates at a density of 5×10^4/well and grown for 24 h and incubated in standard conditions (37° C./5% CO2). In some plates, Pertussis toxin (100 ng/mL, Sigma, Oakville, ON, Canada) treatment was performed 16 h before the CDS assay. Following overnight incubation, plates were placed onto the CELLKEY™ label-free cellular analysis system and growth medium was exchanged to assay buffer (Hanks, Balanced Salt Solution containing 20 mM HEPES and 0.1% BSA) before starting the experiment. Cells were then allowed to equilibrate at room temperature for 30 min. Pre-addition measurements were made for 5 min to obtain a baseline reading. […] The quick update rate (2 s.) of the CELLKEY™ label-free cellular analysis system allows detection of these immediate changes in impedance. Impedance measurements were collected for 10 min to 15 min at 28° C. after ligand addition to monitor cellular responses to ligand interaction and to generate CELLKEY™ label-free cellular analysis system response profiles that are characteristic of the signaling mechanisms used.
The response induced by the various ligands to their receptors was measured by cellular dielectric spectroscopy (CDS) using the CELLKEY™ label-free cellular analysis technology. (MDS Sciex, San Francisco, Calif., USA). The CELLKEY™ label-free cellular analysis system integrates a proprietary impedance measurement system, custom 96-well microliter plate, onboard 96-well fluidics, and environment control and custom acquisition and analysis software in a full solution package (MDS Sciex) that is compatible with commercially available robotic platforms. Small voltage at 24 frequencies, from 1 KHz to 10 MHz, is applied to a monolayer of cells settled in a 96-well microplate containing electrodes at the bottom, and the resultant current is measured at an update rate of 2 s. […] Onboard fluid additions and exchanges are handled by 96-well head fluid delivery device with a range of 5-500 μL. In addition to the cell plate location, the CELLKEY™ label-free cellular analysis system includes two additional stations for 96- or 384-well compound plates. All aspects of assay set up, execution, and data acquisition and analysis are controlled by CELLKEY™ label-free cellular analysis software.
The minimal (min) and maximal (max) values represent the mean of three independent measurements performed in duplicate (six values in total) for a given patient/control subject. […] Duplicates (n1 and n2) of three independent experiments are presented.

[1] = osteoblasts of control subjects, 300 μM ligand, from FIGS. 11A-11F

Brc1c(NC2=NCCN2)ccc2nccnc12 [UK14304, 5-bromo-N-(4,5-dihydro-1H-imidazol-2-yl)-6-quinoxalinamine]
% of control (osteoblasts of AIS#1020 (Group 3) relative to CTR#60): 42.4% and 37.2% and 34.7% and 40.5% and 37.5% and 41.7% | dZiec value (osteoblasts of AIS#1020 (Group 3), 300 μM ligand): 42.74 and 39.74 and 43.5 and 51.5 and 41.62 and 49.62 | % of control (osteoblasts of AIS#1198 (Group 3 in Table II) relative to CTR#69): 42.6% and 43.7% and 57.1% and 54.0% and 49.1% and 58.9% | dZiec value (osteoblasts of AIS#1198 (Group 3 in Table II), 300 μM ligand): 44.16 and 46.16 and 56.22 and 54.22 and 46.19 and 54.19 | % of control (osteoblasts of AIS#1468 (Group 3) relative to CTR#61): 72.7% and 71.7% and 76.2% and 68.8% and 73.0% | dZiec value (osteoblasts of AIS#1468 (Group 3), 300 μM ligand): 65.72 and 67.72 and 77.77 and 75.77 and 67.75 and 75.75 | % of control (osteoblasts of AIS#1474 (Group 1) relative to CTR#60): 20.4% and 19.3% and 18.6% and 19.1% and 17.5% and 16.4% | dZiec value (osteoblasts of AIS#1474 (Group 1), 300 μM ligand): 20.6 and 23.35 and 24.35 and 19.48 | % of control (osteoblasts of AIS#1488 (Group 1) relative to CTR#69): 25.3% and 24.2% and 26.3% and 18.8% and 28.2% and 28.5% | dZiec value (osteoblasts of AIS#1488 (Group 1), 300 μM ligand): 26.24 and 25.55 and 25.92 and 18.92 and 26.55 | % of control (osteoblasts of AIS#1513 (Group 3) relative to CTR#61): 64.7% and 64.0% and 70.1% and 63.2% and 65.8% and 67.8% | dZiec value (osteoblasts of AIS#1513 (Group 3), 300 μM ligand): 58.45 and 60.45 and 71.58 and 69.58 and 61.02 and 69.02 | % of control (osteoblasts of AIS#1549 (Group 1) relative to CTR#61): 30.0% and 30.8% and 33.7% and 33.1% and 35.3% and 36.1% | dZiec value (osteoblasts of AIS#1549 (Group 1), 300 μM ligand): 27.08 and 29.08 and 34.45 and 36.45 and 32.76 and 36.76 | % of control (osteoblasts of AIS#1550 (Group 2) relative to CTR#60): 53.2% and 42.7% and 45.3% and 35.2% and 41.6% and 45.5% | dZiec value (osteoblasts of AIS#1550 (Group 2), 300 μM ligand): 53.62 and 45.62 and 56.75 and 44.75 and 46.19 and 54.19 | dZiec value (osteoblasts of control CTR#60, 300 μM ligand): 100.78/— and 106.78/— and 125.27/— and 127.27/— and 111.02/— and 119.02/— | dZiec value (osteoblasts of control CTR#61, 300 μM ligand): 90.39/— and 94.39/— and 102.1/— and 110.1/— and 92.75/— and 101.75/— | dZiec value (osteoblasts of control CTR#69, 300 μM ligand): 103.67/— and 105.67/— and 98.38/— and 100.38/— and 94.02/— and 92.02/— | Absolute dZiec, control value of max diff. (maximal control value) [1]: 115 | Absolute dZiec, control value of min diff. (minimal control value) [1]: 98 | Absolute dZiec, Group 1, max diff. (group value) (osteoblasts, AIS Group 1 value of max diff., 300 μM ligand, from FIGS. 11A-11F): 21 | Absolute dZiec, Group 1, min diff. (group value) (osteoblasts, AIS Group 1 value of min diff., 300 μM ligand, from FIGS. 11A-11F): 32 | % of control signal, Group 1, max diff. (osteoblasts, AIS Group 1 vs maximal control value): 18% | % of control signal, Group 1, min diff. (osteoblasts, AIS Group 1 vs minimal control value): 33% | Absolute dZiec, Group 2, max diff. (group value) (osteoblasts, AIS Group 2 value of max diff., 300 μM ligand, from FIGS. 11A-11F): 45 | Absolute dZiec, Group 2, min diff. (group value) (osteoblasts, AIS Group 2 value of min diff., 300 μM ligand, from FIGS. 11A-11F): 50 | % of control signal, Group 2, max diff. (osteoblasts, AIS Group 2 vs maximal control value): 39% | % of control signal, Group 2, min diff. (osteoblasts, AIS Group 2 vs minimal control value): 51% | Absolute dZiec, Group 3, max diff. (group value) (osteoblasts, AIS Group 3 value of max diff., 300 μM ligand, from FIGS. 11A-11F): 60 | Absolute dZiec, Group 3, min diff. (group value) (osteoblasts, AIS Group 3 value of min diff., 300 μM ligand, from FIGS. 11A-11F): 71 | % of control signal, Group 3, max diff. (osteoblasts, AIS Group 3 vs maximal control value): 52% | % of control signal, Group 3, min diff. (osteoblasts, AIS Group 3 vs minimal control value): 72%
